Measured values published in publication PMC8688955 (Frontiers in Pharmacology, 2021).
“And” between values parts separate entries of the source, which are not always exact repeats. Identical values can stand only once. Like-named read-outs stand apart in the source and are kept apart here.

Assays:
[1] = target: T1, CI-AMPARs (Rattus norvegicus, UniProt P19491, Q607R); assay: Whole-cell patch-clamp of kainate-induced currents in isolated hippocampal CA1 pyramidal neurons; assay type: cell-based, Wistar rat; settings: for CI-AMPARs % inhibition at 100 µM: 100 µM compound; for CI-AMPARs % inhibition at 100 µM / inhibition at 100 µM: currents induced by 100 µM kainate, mean ± SD, N = 5; for inhibition at 100 µM: read-out: CI-AMPARs % inhibition at 100 µM, 100 µM compound; for IC50: kainate-induced currents; for Activity drop in the presence of cyclothiazide: 50 µM kainate; for decrease in the % of inhibition with the increase in agonist concentration: 50 vs 500 µM kainate; for Difference in the % of inhibition in coapplication and preapplication protocols: coapplication with kainate vs preapplication without kainate
T1 construct: activity against native calcium-permeable AMPA receptors (CP-AMPARs) and calcium-impermeable AMPA receptors (CI-AMPARs); endogenous in cells; host or cells: acutely isolated pyramidal neurons from the CA1 area of Wistar rat hippocampal slices
Method: All experimental procedures were approved by the Animal Care and Use Committee of the I.M. Sechenov Institute of Evolutionary Physiology and Biochemistry of the Russian Academy of Sciences. Wistar rats (13–19 days old) were anesthetized with sevoflurane and then decapitated. Maximum effort was made to minimize the number of animals used. Brains were removed quickly and cooled to 2–4°C in an ice bath. […] The antagonism of CI-AMPARs was studied on pyramidal neurons from the CA1 area of the hippocampus.
Series resistance of about 20 MΩ was compensated by 70–80% and monitored during experiments. Currents were recorded using an EPC-8 amplifier (HEKA Electronics, Lambrecht, Germany), filtered at 5 kHz, sampled, and stored on a personal computer. Drugs were applied using the RSC-200 perfusion system (BioLogic Science Instruments, Claix, France) under computer control. The solution exchange time in the whole-cell mode was 50–60 ms. […] The pipette solution contained (in mM) CsF 100, CsCl 40, NaCl 5, CaCl2 0.5, EGTA 5, and HEPES 10 (pH was adjusted to 7.2 with CsOH). Experiments were performed at room temperature (22–24°C). […] Lamotrigine, topiramate, levetiracetam, felbamate, carbamazepine, tiagabin, vigabatrin, zonisamide, and gabapentin were purchased from Tocris Bioscience (Bristol, United Kingdom). Perampanel was from MedChemExpress (Stockholm, Sweden). Kinetics of transient processes of more than 20-ms duration was approximated by exponential functions. Experiments were performed at −80 mV holding voltage. All experimental data are presented as mean ± SD estimated from at least four experiments. Significance of the effects was tested with paired t test. Differences were considered significant at p < 0.05. 3D structures of compounds were calculated by the ZMM software (zmmsoft.ca).

[2] = system: CP-AMPARs; assay: Whole-cell patch-clamp of kainate-induced currents in isolated striatal giant interneurons; assay type: cell-based, Wistar rat; settings: for CP-AMPARs % inhibition at 100 µM: 100 µM compound, currents induced by 100 µM kainate, mean ± SD, N = 5; for % block: IEM-1925, […], representative recording, Figure 3E; for % inhibition: […] IEM-1925; for IC50: read-out: IC50 CP-AMPARs, kainate-induced currents
Method: All experimental procedures were approved by the Animal Care and Use Committee of the I.M. Sechenov Institute of Evolutionary Physiology and Biochemistry of the Russian Academy of Sciences. Wistar rats (13–19 days old) were anesthetized with sevoflurane and then decapitated. Maximum effort was made to minimize the number of animals used. Brains were removed quickly and cooled to 2–4°C in an ice bath. […] Single neurons were freed from slices by vibrodissociation ([Vorobjev, 1991]). The antagonism of CP-AMPARs was studied on striatal giant interneurons ([Bernard et al., 1997]; [Gotz et al., 1997]), which were identified by their shape and size. […] The antagonism of CI-AMPARs was studied on pyramidal neurons from the CA1 area of the hippocampus.
Series resistance of about 20 MΩ was compensated by 70–80% and monitored during experiments. Currents were recorded using an EPC-8 amplifier (HEKA Electronics, Lambrecht, Germany), filtered at 5 kHz, sampled, and stored on a personal computer. Drugs were applied using the RSC-200 perfusion system (BioLogic Science Instruments, Claix, France) under computer control. The solution exchange time in the whole-cell mode was 50–60 ms. The extracellular solution contained (in mM) NaCl 143, KCl 5, MgCl2 2.0, CaCl2 2.5, D-glucose 18, and HEPES 10 (pH was adjusted to 7.3 with HCl). The pipette solution contained (in mM) CsF 100, CsCl 40, NaCl 5, CaCl2 0.5, EGTA 5, and HEPES 10 (pH was adjusted to 7.2 with CsOH). Experiments were performed at room temperature (22–24°C). […] Lamotrigine, topiramate, levetiracetam, felbamate, carbamazepine, tiagabin, vigabatrin, zonisamide, and gabapentin were purchased from Tocris Bioscience (Bristol, United Kingdom). Perampanel was from MedChemExpress (Stockholm, Sweden). Kinetics of transient processes of more than 20-ms duration was approximated by exponential functions. Experiments were performed at −80 mV holding voltage. All experimental data are presented as mean ± SD estimated from at least four experiments. Significance of the effects was tested with paired t test. Differences were considered significant at p < 0.05. 3D structures of compounds were calculated by the ZMM software (zmmsoft.ca).

[3] = system: hGluA1-4 receptors; parameters: method as in Fukushima et al. (2020); settings: ref Fukushima et al. (2020); cited from earlier work
[4] = target: T1, CI-AMPARs; parameters: method as in Barygin, 2016; settings: ref Barygin, 2016, cited from earlier work
[5] = double-pulse protocol, 30-s pause

T1 sequence (P19491 22-883 Q607R): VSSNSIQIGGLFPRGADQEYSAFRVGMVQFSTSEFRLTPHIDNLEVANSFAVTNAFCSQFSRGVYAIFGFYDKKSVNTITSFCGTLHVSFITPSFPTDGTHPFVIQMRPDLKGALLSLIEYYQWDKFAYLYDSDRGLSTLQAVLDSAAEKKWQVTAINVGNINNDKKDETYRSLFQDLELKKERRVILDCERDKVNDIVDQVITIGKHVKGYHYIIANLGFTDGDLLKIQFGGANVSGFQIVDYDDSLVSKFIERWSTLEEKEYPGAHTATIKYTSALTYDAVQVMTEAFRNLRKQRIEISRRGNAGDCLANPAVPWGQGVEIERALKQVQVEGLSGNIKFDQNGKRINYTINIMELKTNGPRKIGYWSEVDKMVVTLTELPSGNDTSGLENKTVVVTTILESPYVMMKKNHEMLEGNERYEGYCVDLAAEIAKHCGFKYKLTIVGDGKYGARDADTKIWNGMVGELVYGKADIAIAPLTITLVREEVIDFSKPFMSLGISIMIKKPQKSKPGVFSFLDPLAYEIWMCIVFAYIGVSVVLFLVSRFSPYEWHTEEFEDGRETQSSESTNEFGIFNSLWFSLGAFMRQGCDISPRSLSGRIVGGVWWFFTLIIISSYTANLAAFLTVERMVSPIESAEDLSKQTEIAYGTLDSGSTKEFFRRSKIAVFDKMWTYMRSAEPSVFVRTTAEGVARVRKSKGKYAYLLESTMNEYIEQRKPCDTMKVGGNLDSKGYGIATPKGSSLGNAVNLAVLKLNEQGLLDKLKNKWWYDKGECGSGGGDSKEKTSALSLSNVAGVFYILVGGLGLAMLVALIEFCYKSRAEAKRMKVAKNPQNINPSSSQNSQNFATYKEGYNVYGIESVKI

O=C1NC(=O)C(Cc2ccccc2)N1 (stereo not drawn) [5-benzylhydantoin]
inhibition at 300 µM ([1]; 300 µM compound, read-out: percentage of inhibition at 300-µM concentration): ≤ 20%

NC(=O)N1c2ccccc2C=Cc2ccccc21 [Carbamazepine]
CI-AMPARs % inhibition at 100 µM ([1]; −80 mV): 11 ± 3% | inhibition at 100 µM ([1]; −80 mV): ≤ 20% | CP-AMPARs % inhibition at 100 µM ([2]; −80 mV): 15 ± 4% | CP-AMPARs % inhibition at 100 µM ([2]; −80 mV, listed as carbamazepine): ≤ 20% | activity against hGluA1-4 receptors [3]: did not find significant activity

NS(=O)(=O)c1cc2c(cc1Cl)NC(C1CC3C=CC1C3)NS2(=O)=O (stereo not drawn) [Cyclothiazide]
fold potentiation ([1]; Kainate, 50 μM +/- cyclothiazide, 100 μM, representative recording, Figure 5A): 7.4 fold | fold induction at 100 µM ([1]; read-out: increase of the stationary current induced by 50 µM kainate, 100 µM cyclothiazide): 8 ± 2

NC(=O)OCC(COC(N)=O)c1ccccc1 [Felbamate]
CI-AMPARs % inhibition at 100 µM ([1]; −80 mV): 16 ± 4% | inhibition at 100 µM ([1]; −80 mV): ≤ 20% | CP-AMPARs % inhibition at 100 µM ([2]; −80 mV): 10 ± 4% | CP-AMPARs % inhibition at 100 µM ([2]; −80 mV, listed as felbamate): ≤ 20%

CC1=NN=C(c2ccc(N)cc2)c2cc3c(cc2C1)OCO3 [GYKI-52466]
effect on the slow phase of recovery from 50 µM phenytoin ([1]; 200 µM GYKI-52466): remains unchanged | displacement of slow negative allosteric antagonist perampanel [4]: able to displace

NCC1(CC(=O)O)CCCCC1 [Gabapentin]
CI-AMPARs % inhibition at 100 µM ([1]; −80 mV): 20 ± 6% | inhibition at 100 µM ([1]; −80 mV): ≤ 20% | CP-AMPARs % inhibition at 100 µM ([2]; −80 mV): 12 ± 5% | CP-AMPARs % inhibition at 100 µM ([2]; −80 mV, listed as gabapentin): ≤ 20% | activity against hGluA1-4 receptors [3]: did not find significant activity

NCCCCCNC1(c2ccccc2)CCCCC1 [IEM-1925]
More active against CI-AMPARs [1]: dramatically more active against CP-AMPARs and No | IC50 ([1]; Hill equation, −80 mV): 180 ± 30 µM | slow component of the response to testing kainate application in the trapping protocol ([2]; 6 µM IEM-1925, double-pulse protocol, n = 4): 1,800 ± 400 ms | Activity drop at high (500 µM) kainate concentration ([2]; 50 vs 500 µM kainate, striatal CP-AMPARs): No | % block ([2]; Ka 50 μM): 49% | % block ([2]; Ka 500 μM): 57% | % inhibition ([2]; 50 µM kainate): 48 ± 3% | % inhibition ([2]; 500 µM kainate): 55 ± 5% | Difference in the % of inhibition in coapplication and preapplication protocols ([2]; coapplication with kainate vs preapplication without kainate, striatal CP-AMPARs): inhibited only open channels and Yes | Trap in kainate 100 µM ([2]; double-pulse protocol, 30-s pause, striatal giant interneuron): Yes | Trap in kainate 500 µM ([2]; double-pulse protocol, striatal giant interneuron): Yes | IC50 ([2]; Hill equation, −80 mV): 1.3 ± 0.4 µM

CCCC(C)C1(CC)C(=O)NC(=O)NC1=O (stereo not drawn) [Pentobarbital]
% block [1]: 56% and 42% | Activity drop at high (500 µM) kainate concentration [1]: more active in the case of lower kainate concentration and Yes | More active against CI-AMPARs [1]: Yes | effect on maximal response to kainate ([1]; 14 µM pentobarbital): decreased the maximal response to kainate | Activity drop in the presence of cyclothiazide ([1]; 100 µM cyclothiazide): Yes | Activity drop in the presence of cyclothiazide ([1]; 100 µM cyclothiazide, listed as pentobarbital): significantly attenuated in the presence of cyclothiazide | decrease in the % of inhibition with the increase in agonist concentration [1]: 10–15% | % block ([1]; Pentobarbital, 50 μM, Kainate, 50 μM + cyclothiazide, 100 μM, representative recording, Figure 5E): 27% | % block ([1]; Pentobarbital, 50 μM, Kainate, representative recording, Figure 5D): 75% | Difference in the % of inhibition in coapplication and preapplication protocols [1]: more active in the coapplication protocol and Yes | Trap in kainate 100 µM [1, 5]: Yes | IC50 ([1]; Hill equation, −80 mV): 14 ± 3 µM | pH-dependence ([1]; pH 7.4 vs 9.0): Yes | % block ([1]; pentobarbital 30 μM, pH 7.4, Kainate, 100 μM, representative recording, Figure 10B): 65% | % block ([1]; pentobarbital 30 μM, pH 9.0, Kainate, 100 μM, representative recording, Figure 10B): 27% | IC50 ([2]; Hill equation, −80 mV): 80 ± 13 µM

N#Cc1ccccc1-c1cc(-c2ccccn2)cn(-c2ccccc2)c1=O [Perampanel]
Activity drop at high (500 µM) kainate concentration [1]: more active in the case of lower kainate concentration and Yes | More active against CI-AMPARs [1]: equipotently inhibited both receptor subtypes and No | time constant τ of the response to testing kainate application in the trapping protocol ([1]; 500 nM perampanel, double-pulse protocol, n = 4): 41 ± 12 ms | decrease in the % of inhibition with the increase in agonist concentration [1]: 30–40% | Difference in the % of inhibition in coapplication and preapplication protocols [1]: No | Difference in the % of inhibition in coapplication and preapplication protocols ([1]; listed as perampanel): equally effective in preapplication and coapplication protocols | Trap in kainate 100 µM [1, 5]: No | Trap in kainate 500 µM [1, 5]: No | IC50 [1]: 0.063 ± 0.008 µM | IC50 [2]: 0.06 ± 0.006 µM | reduction in activity by cyclothiazide ([4]; isolated CA1 pyramidal neurons): ca. 20 fold | Activity drop in the presence of cyclothiazide [4]: Yes | Activity drop in the presence of cyclothiazide ([4]; listed as perampanel): less active in the presence of cyclothiazide
